According to publication PMC9723620 (2022):

How the values were obtained:
[1] = tested on: A-site RNA (RNA, rRNA) CGGCGUCACACCUCGGGGUGAAGUCGCCG; assay: fluorescent intercalator displacement (FID); conditions: 100 mM KCl, 4 mM MgCl2, 20 mM Tris-HCl pH 7.0, TO-PRO displaced, RNA 0.5 μM
[2] = tested on: NEAT1_2 TH (RNA, triplex) AGGUGUUUCUUUUACUGAGUGCAGCCC/UGGCCGCACUCAGGUUUUGCUUUUCACCUUCCCAUCUGUGAAAGAGUGAGCAGGAAAAAGCAAAA; assay: fluorescent intercalator displacement (FID) screen; conditions: 100 mM KCl, 4 mM MgCl2, 20 mM Tris-HCl pH 7.0, 2% DMSO, TO-PRO displaced, RNA 0.25 μM, hit at 10 μM
[3] = tested on: NEAT1_2 TH (5' biotin-TEG, immobilized) (RNA, triplex) AGGUGUUUCUUUUACUGAGUGCAGCCC/UGGCCGCACUCAGGUUUUGCUUUUCACCUUCCCAUCUGUGAAAGAGUGAGCAGGAAAAAGCAAAA; assay: grating-coupled interferometry (waveRAPID); conditions: 150 mM NaCl, 4 mM MgCl2; 10 mM HEPES pH 7.4, 0.005% Tween-20, 1% DMSO, 25°C; tested at 10 μM
[4] = tested on: NEAT1_2 TH (RNA, triplex) AGGUGUUUCUUUUACUGAGUGCAGCCC/UGGCCGCACUCAGGUUUUGCUUUUCACCUUCCCAUCUGUGAAAGAGUGAGCAGGAAAAAGCAAAA; assay: fluorescent intercalator displacement (FID); conditions: 100 mM KCl, 4 mM MgCl2, 20 mM Tris-HCl pH 7.0, TO-PRO displaced, RNA 0.5 μM
[5] = tested on: NEAT1_2 TH (RNA, triplex) AGGUGUUUCUUUUACUGAGUGCAGCCC/UGGCCGCACUCAGGUUUUGCUUUUCACCUUCCCAUCUGUGAAAGAGUGAGCAGGAAAAAGCAAAA; assay: fluorescence increase on binding; conditions: 100 mM KCl, 4 mM MgCl2; 20 mM Tris-HCl pH 7.0; RNA 0.5 μM, equimolar dye; 220.7-fold fluorescence increase
[6] = tested on: A-site RNA (RNA, rRNA) CGGCGUCACACCUCGGGGUGAAGUCGCCG; assay: fluorescence increase on binding; conditions: 100 mM KCl, 4 mM MgCl2; 20 mM Tris-HCl pH 7.0; RNA 0.5 μM, equimolar dye; 116.3-fold fluorescence increase
[7] = tested on: fragment 2 (f2), biotinylated (RNA, other) UGGCCGCACUCAGGUUUUGCUUUUCACCUUCCCAUCUGUGAAAGAGUGAGCAGGAAAAAGCAAAA; assay: grating-coupled interferometry (waveRAPID); conditions: 150 mM NaCl, 4 mM MgCl2; 10 mM HEPES pH 7.4, 0.005% Tween-20, 1% DMSO, 25°C; tested at 10 μM
[8] = tested on: fragment 1 (f1), biotinylated (RNA, single strand) AGGUGUUUCUUUUACUGAGUGCAGCCC; assay: grating-coupled interferometry (waveRAPID); conditions: 150 mM NaCl, 4 mM MgCl2; 10 mM HEPES pH 7.4, 0.005% Tween-20, 1% DMSO, 25°C; tested at 10 μM

For `CC(=O)NC[C@H]1CN(c2ccc(N3CCOCC3)c(F)c2)C(=O)O1`, the binding ([1]; no effect at 50 μM) was “no”.
In the case of `CC(=O)c1c(O)c(C)c(O)c(Cc2c(O)c3c(c(C(=O)/C=C/c4ccccc4)c2O)OC(C)(C)C=C3)c1O`, the binding ([2]; not confirmed by GCI) is reported as “yes” and the binding [3] is reported as “no”.
For `CC1(C)CC(Oc2ccc(-c3ccc(-c4cn[nH]c4)cc3O)nn2)CC(C)(C)N1`, the binding ([4]; at higher concentration) was “weak” and the binding ([1]; at higher concentration) was “weak”.
`CN[C@@H]1[C@@H](O)[C@@H](O[C@@H]2[C@@H](O)[C@H](O[C@H]3O[C@H]([C@@H](C)O)[C@@H](O)[C@H](O)[C@H]3N)[C@@H](N)C[C@H]2N)OC[C@]1(C)O` was tested, and the binding ([4]; fluorescence to 0.72, higher concentration only) was “weak” and the binding ([1]; both concentrations) was “yes”.
`CNc1ncc(CN2CCCC(c3nc(-c4cccs4)cc(=O)[nH]3)C2)cn1` (centres unmarked) was tested, and the binding ([4]; two concentrations) was “no” and the binding ([1]; two concentrations) was “no”.
`COc1ccc(Br)cc1S(=O)(=O)NC(=O)/C=C/c1ccccc1Cc1ccc2ccccc2c1` was tested, and the binding [2] was “yes”.
In the case of `C[n+]1c(C=C2C=CN(CCC[N+](C)(C)C)c3ccccc32)sc2ccccc21`, the binding [5] is reported as “yes” and the binding [6] is reported as “yes”.
In the case of `Cc1cc(O)c2c(c1)C(=O)c1cc(O)cc(O)c1C2=O`, the binding [2] is reported as “yes”, the binding [7] is reported as “no” and the binding [8] is reported as “no”.
For `NCCOc1cc(C(=O)Nc2cc(OCCN)c3ccccc3n2)nc(C(=O)Nc2cc(OCCN)c3ccccc3n2)c1`, the binding [2] was “yes”.
`NC[C@@H]1O[C@H](O[C@H]2[C@@H](O)[C@H](O[C@@H]3[C@@H](O)[C@H](N)C[C@H](N)[C@H]3O[C@H]3O[C@H](CO)[C@@H](O)[C@H](O)[C@H]3N)O[C@@H]2CO)[C@H](N)[C@@H](O)[C@@H]1O` was tested, and the binding ([4]; fluorescence 0.61 at 50, 0.34 at 500 μM) was “yes” and the binding ([1]; fluorescence to 0.08 at 50 and 500 μM) was “yes”.
For `O=C(N[C@H](CO)[C@H](O)c1ccc([N+](=O)[O-])cc1)C(Cl)Cl`, the binding [3] was “no”, the binding ([4]; no effect at 50 μM) was “no” and the binding ([1]; no effect at 50 μM) was “no”.
With `O=C(O)C1=CC(=C(c2ccc(O)c(C(=O)O)c2)c2ccc(O)c(C(=O)O)c2)C=CC1=O` the binding [2] was “yes”.
In the case of `O=C1Nc2ccc(I)cc2/C1=C/c1cc(Br)c(O)c(Br)c1`, the binding [2] is reported as “yes”.
For `O=C1c2c(O)ccc(O)c2C(=O)c2c(NCCNCCO)ccc(NCCNCCO)c21`, the binding [2] was “yes”.
With `O=c1c(O)c(-c2cc(O)c(O)c(O)c2)oc2cc(O)cc(O)c12` the binding [2] was “yes”.
`O=c1c(O)c(-c2ccc(O)c(O)c2)oc2cc(O)cc(O)c12` was tested, and the binding [2] was “yes”.
